Laboratory results from BindingDB's records for doi:10.1016/j.bmcl.2015.04.057 (Merck Research Laboratories, 2015).

Legend:
Coagulation factor IX [1] = molecular target: T1, Coagulation factor IX (Homo sapiens, UniProt P00740); test: (§1) Inhibition of human coagulation factor 9a using fluorescent peptide CH3SO2-D-CHG-Gly-Arg-AFC-AcoH as substrate
Coagulation factor IX [2] = molecular target: T1, Coagulation factor IX; test: as §1; remark: listed apart in the source

T1 sequence (P00740 47-191 limits assumed): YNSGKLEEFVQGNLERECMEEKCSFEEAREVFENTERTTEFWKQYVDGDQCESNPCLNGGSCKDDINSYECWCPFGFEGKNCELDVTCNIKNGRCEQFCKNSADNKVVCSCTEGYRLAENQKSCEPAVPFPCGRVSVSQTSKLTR
T1 sequence (P00740 227-461 limits assumed): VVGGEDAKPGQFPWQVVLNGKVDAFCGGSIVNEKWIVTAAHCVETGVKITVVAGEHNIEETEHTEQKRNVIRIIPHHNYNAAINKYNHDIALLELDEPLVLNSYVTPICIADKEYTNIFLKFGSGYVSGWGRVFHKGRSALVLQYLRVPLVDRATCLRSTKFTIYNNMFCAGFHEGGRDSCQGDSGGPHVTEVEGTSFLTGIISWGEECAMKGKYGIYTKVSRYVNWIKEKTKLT

Structure (SMILES): Cc1cc2nc([C@@H](CNC(=O)c3c(Cl)cc(-n4cnnc4)cc3Cl)c3ccccc3)[nH]c2cc1C
- Ki (Coagulation factor IX [1]): 0.0154 µM
- Ki (Coagulation factor IX [2]): 0.015 µM
